Test system: Mice
Experiment: Inhalation anesthesia test in mice, 10 minutes in a rotating drum (pinch, corneal and righting reflex): AC50, LC50 and anesthetic index
Assay type: in vivo
Details: for AI (anesthetic index, LC50/AC50): calculated from LC50 and AC50, 10 min; for AC50 (minimum concentration required to anesthetize 50% of the mice) / LC50 (minimum concentration required to kill 50% of the mice): inhalation, 10 minutes in rotating drum, at least four graded doses, where two figures are given, the actual value lies between them
Method: Mice were exposed to the anesthetic for a period of 10 minutes in a rotating drum. Observations were then made of the pinch reflex, the corneal reflex and the return of the righting reflex. At least four graded doses were employed to determine the minimum concentration required to anesthetize 50% of the mice used (AC50) and the minimum concentration required to kill 50% of the mice (LC50). The anesthetic index (AI) was then calculated from these minimum concentrations.

Structure (SMILES): CC1(Cl)CC1(F)Cl (stereo not drawn) [Example 9, 1,2-Dichloro-1-fluoro-2-methylcyclopropane]
- AI (anesthetic index, LC50/AC50): > 2
- AC50 (minimum concentration required to anesthetize 50% of the mice): < 1 % volume
- LC50 (minimum concentration required to kill 50% of the mice): 2-4 % volume

Structure (SMILES): CC1(F)C(F)(F)C1(Cl)Cl (stereo not drawn) [Example 8, 1,1-diCl-2-CH3-triF-]
- AI (anesthetic index, LC50/AC50): 4-6
- AC50 (minimum concentration required to anesthetize 50% of the mice): < 1 % volume
- LC50 (minimum concentration required to kill 50% of the mice): 4-6 % volume

Structure (SMILES): FC1C(F)(F)C1(Cl)Cl (stereo not drawn) [Example 14, 1,1-diCl-2,3,3-triF-]
- AI (anesthetic index, LC50/AC50): 2-3
- AC50 (minimum concentration required to anesthetize 50% of the mice): < 2 % volume
- LC50 (minimum concentration required to kill 50% of the mice): 4-6 % volume

Structure (SMILES): FC1(F)C(F)(Cl)C1(F)Cl (stereo not drawn) [Example 12, 1,2-Dichlorotetrafluorocyclopropane]
- AI (anesthetic index, LC50/AC50): ~ 2
- AC50 (minimum concentration required to anesthetize 50% of the mice): 6-10 % volume
- LC50 (minimum concentration required to kill 50% of the mice): < 20 % volume

Structure (SMILES): FC1(F)C(F)(Cl)C1(Cl)Cl (stereo not drawn) [Example 10, 1,1,2-triCl-triF-]
- AI (anesthetic index, LC50/AC50): > 3
- AC50 (minimum concentration required to anesthetize 50% of the mice): 1.5 % volume
- LC50 (minimum concentration required to kill 50% of the mice): 2-10 % volume

Structure (SMILES): FC(F)(F)C1(F)C(F)(F)C1(Cl)Cl (stereo not drawn) [Example 11, 1,1-diCl-2-CF3-triF-]
- AI (anesthetic index, LC50/AC50): ~ 2
- AC50 (minimum concentration required to anesthetize 50% of the mice): 4 % volume
- LC50 (minimum concentration required to kill 50% of the mice): > 10 % volume

Structure (SMILES): FC1(F)C(Cl)(Cl)C1(Cl)Cl [Example 13, 1,1,2,2-tetraCl-diF-]
- AI (anesthetic index, LC50/AC50): ~ 4
- AC50 (minimum concentration required to anesthetize 50% of the mice): 0.25 % volume
- LC50 (minimum concentration required to kill 50% of the mice): 1 % volume

Reference: patent US3989845A, “Anesthetic chlorocyclopropanes” (priority 1974, dated 1976)
